In brackets after ≈: the same amount, converted by molar mass. Several values for one entry are separate records, joined by “and”; a condition that tells them apart may be missing. Equal values may be shown once.
Legend:
[1] = test system: PI3K-AKT signaling pathway and apoptosis pathway; assay: 4D-LFQ proteomics of FIPV-infected CRFK cells; assay type: cell-based, feline; conditions: 48 h
Description: According to the methods of Section 4.6, post-infection cells were collected at the appropriate time of infection and then quickly frozen in liquid nitrogen. The cell control group was named the control group (Group C), the virus control group was named the FIPV group (Group F), the compound treatment group was named the treatment group (Group T), and each group contained three replicate samples. Afterwards, they were sent to Shanghai Applied Protein Technology Co., Ltd. (Shanghai, China) for 4D-LFQ proteomics analysis.

FIPV-infected CRFK cells = assay: FIPV-induced apoptosis, Annexin V-FITC/PI assay; assay type: cell-based, feline; conditions: baicalin-treated FIPV-infected CRFK cells, 24 h after infection, p < 0.05
Description: CRFK cells were seeded in 96-well cell culture plates at a density of 1 × 10^4 cells/well and cultured at 37 °C in 5% CO2 until the cell density was greater than 90%. After the cells were washed twice with PBS, 50 μL of test compound and 50 μL of FIPV were added to each well simultaneously (at the same time, a cell control group with only 100 μL of MM and a viral control group with only 100 μL of FIPV were added). Three replicate wells were used for each group. […] Then, apoptosis was detected according to the instructions of the Annexin V-FITC/PI Apoptosis Detection Kit (MCE, USA). The results were observed using a fluorescence inverted microscope, and the fluorescence intensity was analyzed using ImageJ.

FIPV (BJ-01) [2] = assay: Cellular viral load by qPCR (FIPV-N gene); assay type: cell-based, feline infectious peritonitis virus
Description: CRFK cells were seeded in a 96-well cell culture plate at a density of 1 × 10^4 cells/well and cultured at 37 °C in 5% CO2 until the cell density was greater than 90%. After the cells were washed twice with PBS, 50 μL of compound and 50 μL of FIPV were added to each well simultaneously, and the plates were incubated at 37 °C and 5% CO2 for 12, 24, 36, 48, 60, and 72 h (at the same time, a cell control group with only 100 μL of MM and a viral control group with only 100 μL of FIPV were added). There were 3 replicate wells for each group and incubation time. After the liquid in the plate was discarded, the cells were washed twice with PBS. Then, the cells were digested by adding tryptic digest at 30 μL/well, the cell suspension was collected, and the cell precipitates were collected by centrifugation at 3000 rpm for 1 min. Total cellular RNA was extracted after the cell precipitates were resuspended in PBS according to the instructions of the FastPure Viral DNA/RNA Mini Kit Pro (Vazyme, Nanjing, China). Then, reverse transcription was performed using HiScript IV RT SuperMix for qPCR (+gDNA wiper) (Vazyme, Nanjing, China). The sequences of the primers used for the detection of the FIPV-N (GenBank: MK840958.1) were […] (F: 5′→3′) and […] (R: 5′→3′). The sequences of the primers used for the detection of the GAPDH genes were […] (F: 5′→3′) and […] (R: 5′→3′). […]

FIPV (BJ-01) [3] = assay: Impact of the compound on FIPV adsorption (cells pre-incubated with compound, CCK-8); assay type: cell-based, feline infectious peritonitis virus; conditions: cells co-cultured with baicalin before FIPV, all times
Description: According to previous methods, CRFK cells were seeded in 96-well cell culture plates at a density of 1 × 10^4 cells/well and cultured at 37 °C in 5% CO2 until the cell density was greater than 90%. Then, the medium was discarded, and the cells were washed twice with PBS. The compound was first added into 96-well cell culture plates at 100 μL/well and then incubated at 37 °C and 5% CO2 for […], 1, 2, 4, and 6 h, respectively, then incubated at 4 °C for 1 h. After that, the liquid in the plates was removed and washed with PBS twice. Then, added FIPV into cells at 100 μL/well and incubated at 37 °C and 5% CO2 (at the same time, a cell control group with only 100 μL of MM and a viral control group with only 100 μL of FIPV were added). There were 3 replicate wells for each compound and group. After the CPE of the viral control group reached more than 80%, the liquid in the culture plate was removed and washed twice with PBS. Afterwards, the IR of the compounds against the virus was computed according to the directions of the Cell Counting Kit-8.

FIPV (BJ-01) [4] = assay: Inhibitory effects of compounds on FIPV-infected cells (compound and FIPV added simultaneously, CCK-8); assay type: cell-based, feline infectious peritonitis virus
Description: According to previous methods, CRFK cells were seeded in 96-well cell culture plates at a density of 1 × 10^4 cells/well and cultured at 37 °C in 5% CO2 until the cell density was greater than 90%. After the cells were washed twice with PBS, 50 μL of test compound and 50 μL of FIPV were added to each well simultaneously (at the same time, a cell control group with only 100 μL of MM and a viral control group with only 100 μL of FIPV were added). There were 3 replicate wells for each compound and group. After 72 h of incubation at 37 °C and 5% CO2, the liquid in the plate was discarded, and the cells were washed twice with PBS. The MIR of the compounds to the virus was calculated according to the instructions of the Cell Counting Kit-8. Afterwards, the compounds with MIR > 50% were diluted to 8 concentrations with MM, and the above process was repeated. Then, the EC50 values of the compounds were calculated with GraphPad Prism 10.

[5] = treatment/FIPV comparison group

SMILES: O=C(O)[C@H]1O[C@@H](Oc2cc3oc(-c4ccccc4)cc(=O)c3c(O)c2O)[C@H](O)[C@@H](O)[C@@H]1O [Baicalin]
- AKT2 level (4D-LFQ) ([1]; treatment group vs FIPV group): significantly upregulated
- AKT3 level (4D-LFQ) ([1]; treatment group vs FIPV group): tended to increase
- EGFR level (4D-LFQ) ([1]; treatment group vs FIPV group): significantly upregulated
- PIK3CA level (4D-LFQ) ([1]; treatment group vs FIPV group): significantly upregulated
- BAX level (4D-LFQ) [1, 5]: downregulated but not significant
- BCL2L level (4D-LFQ) [1, 5]: upregulated but not significant
- CASP9 level (4D-LFQ) [1, 5]: significantly downregulated
- fluorescence intensity per unit area of cells (early apoptosis, green fluorescence) (FIPV-infected CRFK cells): significantly lower
- FIPV-N gene copy number (FIPV (BJ-01) [2]; 48 h compared with 36 h of baicalin treatment, p < 0.05): significantly decreased
- time of peak FIPV-N gene copy number after baicalin treatment (FIPV (BJ-01) [2]; FIPV-infected CRFK cells, qPCR at 12-72 h): 36 h
- inhibition rate on FIPV infection (adsorption) (FIPV (BJ-01) [3]): ≤ 50%
- EC50 (FIPV (BJ-01) [4]; Alphacoronavirus 1, FIPV in CRFK cells, gradient dilution, 72 h, CCK-8): 20.8 µg/mL (≈ 46.6 µM)
- SI (CC50/EC50) (FIPV (BJ-01) [4]; FIPV, CRFK cells): > 3 and 5.5

— article PMC11431997, “Baicalin Inhibits FIPV Infection In Vitro by Modulating the PI3K-AKT Pathway and Apoptosis Pathway” (International Journal of Molecular Sciences, 2024)
